According to patent US20220281794A1, “METHOD OF THE ISOLATING CHLOROSESAMONE OR CHLOROSESAMONE-CONTAINING FRACTION FROM ROOTS OF GENUS SESAMUM, AND APPLICATION OF THE FRACTION THEREOF” (BRILLIANT BIOMEDICAL CORP., priority 2019, published 2022):

What was measured:
Assay type in all cases: cell-based
[1] = tested on: 4T1 mouse breast cancer cell; assay: cell viability assay (MTT assay), 4T1; conditions: 4T1 cells, 24 hours treatment stated for D2 fraction
Description: (§1) In the first embodiment, MDA-MB-231, a human breast cancer cell and 4T1, a mouse breast cancer cell, Huh-7 and HepG2, a human liver cancer cell and BNL-1-MEA, a mouse liver cancer cell, HL60, a human blood cancer cell and WEHI-3, a mouse blood cancer cell , and
(§2) A549, a human lung cancer cell and LLC1, a mouse lung cancer cell are used for the experiments. A 96-well plate is used for cell culture. In the test, cells are treated with 0, 25, 50, 100, 200, 400 μg/mL of D2 fraction for 24 hours, and then subjected to cell viability assay (or MTT assay). In cell viability assay, cells are washed with 1X PBS once and treated with 0.5 mg/mL of MTT (3-(4,5-Dimethylthiazol-2-yl)-2,5-diphenyltetrazolium bromide). After incubation at 37 degrees Centigrade for 1-2 hours MTT is removed and cells are washed with 1X PBS once, followed by dimethyl sulfoxide (DMSO) to dissolve […]. Finally optical density (OD) of 570 nm is detected and medium only is used as a 100% cell viability.

[2] = tested on: HepG2 human liver cancer cell; assay: cell viability assay (MTT assay), HepG2; conditions: HepG2 cells, 24 hours treatment stated for D2 fraction
Description: as §1, §2

[3] = tested on: 4T1 mouse breast cancer cell and HepG2 human liver cancer cell; assay: cell viability assay, summary over 4T1 and HepG2; conditions: range over 4T1 and HepG2 cells
Description: as §1, §2

## CC(C)=CCC1=C(Cl)C(=O)c2c(O)ccc(O)c2C1=O [chlorosesamone]
[1]
  50% inhibition concentration in 4T1 mouse breast cancer cell: 1.3 µg/mL
[2]
  50% inhibition concentration in HepG2 human liver cancer cell: 0.8 µg/mL
[3]
  50% inhibition concentration of chlorosesamone (range): 0.8 to 1.3 µg/mL
